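Step 1: Grow cells in 96-well plates. Step 2: Expose to compound for 48 hours at 5 concentrations. Step 3: Interpolate endpoints linearly; if unreached, use highest concentration. TGI is the concentration that stops growth completely.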
Experiments:
Assay in all cases: NCI-60 cell line screen, 48 h
OVCAR-8 ovarian = system: OVCAR-8 ovarian
SN12C renal = system: SN12C renal
MDA-MB-231 breast = system: MDA-MB-231 breast
UO-31 renal = system: UO-31 renal
ACHN renal = system: ACHN renal
SK-MEL-5 melanoma = system: SK-MEL-5 melanoma
SR leukemia = system: SR leukemia
K-562 leukemia = system: K-562 leukemia
BT-549 breast = system: BT-549 breast
NCI-H23 lung = system: NCI-H23 lung
HT29 colon = system: HT29 colon
MALME-3M melanoma = system: MALME-3M melanoma

Row | Compound | TGI (OVCAR-8 ovarian) | TGI (SN12C renal) | TGI (MDA-MB-231 breast) | TGI (UO-31 renal) | TGI (ACHN renal) | TGI (SK-MEL-5 melanoma) | TGI (SR leukemia) | TGI (K-562 leukemia) | TGI (BT-549 breast) | TGI (NCI-H23 lung) | TGI (HT29 colon) | TGI (MALME-3M melanoma)
1 | CCOC(=O)c1sc2nc(SC)nc(Nc3ccc(OC)c(OC)c3)c2c1N | > 100 µM | > 100 µM | 82.4 µM | > 100 µM | > 100 µM | > 100 µM | > 100 µM | > 100 µM | > 100 µM | > 100 µM | > 100 µM | > 100 µM
2 | Nc1nc(Cl)cc(Nc2ccc3c(c2)CCC3)n1 | > 100 µM | > 100 µM | > 100 µM | > 100 µM | > 100 µM | > 100 µM | 63.3 µM | > 100 µM | > 100 µM | > 100 µM | > 100 µM | > 100 µM
3 | O=C(c1nsc(Cl)c1Cl)N1CCCCC1 | > 100 µM | > 100 µM | > 100 µM | > 100 µM | – | > 100 µM | > 100 µM | > 100 µM | > 100 µM | > 100 µM | > 100 µM | > 100 µM
4 | C=CCSc1nn(CC=C)cc2ncnc1-2 | > 100 µM | > 100 µM | > 100 µM | > 100 µM | > 100 µM | > 100 µM | > 100 µM | > 100 µM | > 100 µM | > 100 µM | > 100 µM | –
5 | COC(CNC(=O)C(C)NC(=O)C(C)NC(=O)c1ccccc1)OC (centres undefined) | > 100 µM | > 100 µM | > 100 µM | – | > 100 µM | > 100 µM | > 100 µM | > 100 µM | > 100 µM | > 100 µM | > 100 µM | > 100 µM
6 | CC(=O)Oc1ccc(-c2cc3ccccc3oc2=O)cc1OC(C)=O | > 100 µM | > 100 µM | > 100 µM | > 100 µM | > 100 µM | – | > 100 µM | > 100 µM | > 100 µM | > 100 µM | > 100 µM | > 100 µM
7 | C=CCC1(O)c2cccc(O)c2C(=O)c2c(O)cccc21 | > 100 µM | – | > 100 µM | > 100 µM | > 100 µM | 85.9 µM | 44.7 µM | > 100 µM | 60.7 µM | 56.9 µM | 67.9 µM | –
8 | COc1cc(Cn2c3c(c4cc(O)ccc42)C(=O)c2ccccc2C3=O)cc(OC)c1 | 19.1 µM | 42.2 µM | 23.6 µM | 30.4 µM | 7.61 µM | 18.7 µM | 25.2 µM | – | 4.86 µM | 32.2 µM | 16.2 µM | 43.8 µM
9 | CC(=O)OC1CC(OC2C(O)CC(OC3C(O)CC(OC4CCC5(C)C(CCC6C5CC(O)C5(C)C(C7=CC(=O)OC7)CCC65O)C4)OC3C)OC2C)OC(C)C1O (centres undefined) (tested in a mixture with another compound) | 0.129 µM | – | 0.518 µM | 0.169 µM | 0.0818 µM | 0.0838 µM | > 100 µM | 0.0685 µM | 0.201 µM | 0.0346 µM | 0.0954 µM | 0.0479 µM
10 | COc1cc2c[n+](C)c3c4ccccc4ccc3c2cc1OC | 16.8 µM | 7.95 µM | 14.8 µM | > 100 µM | > 100 µM | 12.9 µM | – | 21.2 µM | 16.7 µM | 14.1 µM | > 47.6 µM | 5.53 µM
11 | CN1c2ccccc2C2c3c(O)ccc(O)c3C=C([N+](=O)[O-])C21 (centres undefined) | – | – | 7.44 µM | 2.1 µM | 1.97 µM | 1.89 µM | > 24.8 µM | > 100 µM | 13.6 µM | 5.61 µM | 0.568 µM | –
12 | Cn1cc(-c2ccc(CCOC3CCCCO3)cc2)c2c(C#N)cccc21 (centres undefined) | > 100 µM | > 100 µM | > 100 µM | > 100 µM | – | > 100 µM | > 100 µM | > 100 µM | > 100 µM | > 100 µM | 45.3 µM | > 100 µM
13 | Cc1ccc(C2SC(N)=Nc3c2c(C)nn3C(=O)c2ccncc2)cc1 (centres undefined) | > 10 µM | > 10 µM | > 10 µM | – | > 10 µM | > 10 µM | > 10 µM | > 10 µM | > 10 µM | > 10 µM | > 10 µM | > 10 µM
14 | CCNC1CC(C(C)(C)NCC)CC=C1C (centres undefined) | > 100 µM | > 100 µM | > 100 µM | > 100 µM | – | > 100 µM | > 100 µM | > 100 µM | > 100 µM | > 100 µM | > 100 µM | –
15 | Cc1c(-c2ccccc2)n(C)c2cn[nH]c(=O)c12 | > 100 µM | – | 36.9 µM | > 100 µM | > 100 µM | 31.8 µM | 70.9 µM | > 100 µM | > 100 µM | > 100 µM | 81.3 µM | > 100 µM
16 | Cc1cccc(C)c1NC(=S)/N=C/C1=C(O)c2ccccc2C1=O | > 100 µM | > 100 µM | > 100 µM | > 86.1 µM | > 100 µM | 29.3 µM | 8.19 µM | > 100 µM | > 28.8 µM | 59.2 µM | > 79.2 µM | –

— PubChem BioAssay (NCI)
